From patent publication US12275734B1, “Pleuromutilin onium salt derivative containing a 3H-imidazo[4,5-c]pyridine side chain, and a preparation method and application thereof” (SHAANXI UNIVERSITY OF SCIENCE AND TECHNOLOGY, priority 2024, dated 2025) come the findings set out here.

Each structure is given as a SMILES string. In brackets after ≈: the same amount, converted by molar mass. Where two headings read alike, the source gives them in different places.

The test system of test [1] is E. coli (ATCC 25922). The test is described as follows: Intracellular and extracellular ATP concentration. Type of test: cell-based. How it is done: The intracellular and extracellular ATP levels refer to the concentration of ATP inside and outside the cell. Under normal physiological conditions, ATP is mainly produced inside the cell and released outside the cell when needed. This dynamic change is very important for maintaining normal biological homeostasis.
Determine the intracellular ATP concentration using the ATP assay kit:
Secondly, the bacterial suspension was treated with different concentrations of compound i, and a blank control group was set up. Next, the samples were incubated at 37° C. and the cells were lysed by ultrasound to extract ATP. After that, the supernatant was collected by high-speed centrifugation and ATP detection was performed, which involved adding the detection solution and compound to a 96-well plate and using a reader to measure the light intensity. Finally, data analysis and statistics were performed to evaluate the effects of the compound by comparing the ATP levels of different treatment groups.

The subject of a further test is MRSA (ATCC 33591). Nature of the test: Time-kill curve. As to conditions: 1×MIC to 8×MIC, 0-24 hours. It counts as cell-based, S. aureus. On the procedure:
Based on the MIC test results, the best performing active compounds were selected for time-kill curve studies.
(2) Sampling: At 0, 2, 4, 6, 8, 12, and 24 hours, aspirate 100 μL of the mixture
(3) Serial dilution and coating: Use 10 mM PBS buffer to dilute 10 times continuously, and evenly coat the diluted liquid on the agar plate
(4) Incubation and counting: Incubate in a 37° C. incubator for 24 hours and count the colonies.
(5) Sterilization curve drawing: Draw the curve of colony count change over time at different compound concentrations, and record the results as shown in FIG. 1.

Test [2] deals with E. coli (ATCC 25922). The test is described as follows: Cell membrane integrity, propidium iodide staining. It counts as cell-based. How it is done: The steps for dead cell staining using propidium iodide are as follows:
At the beginning of the experiment, samples were taken from MRSA and E. coli in the logarithmic growth phase, centrifuged at 8000 rpm for 5 minutes and washed twice with 0.85% NaCl solution to remove the culture medium and other possible interfering substances. Afterwards, the bacteria were resuspended in 0.85% NaCl solution and the concentration was adjusted to approximately 1×10^8 CFU/mL.
[…] After incubation, in order to mark and distinguish dead cells, 15 μM propidium iodide solution was added to each sample and incubated in the dark for 15 minutes. PI is a fluorescent dye that binds to DNA and can only penetrate into dead cells with damaged cell membranes.
Finally, the samples were observed using a fluorescence microscope or a confocal laser scanning microscope. By setting the appropriate fluorescence channel (excitation wavelength 535 nm, emission wavelength 617 nm), the red fluorescence emitted by dead cells can be detected. In this way, the effect of compound i on the lethality of bacterial cells can be intuitively evaluated and recorded, providing an experimental basis for further drug research.

The test system of test [3] is methicillin-resistant Staphylococcus aureus-222. The test is described as follows: MIC, clinical isolates. It counts as cell-based. The note with it: MRSA / MRSE. On the procedure: (§1) The minimum inhibitory concentration of 3H-imidazo[4,5-C]pyridine pleuromutilin onium salt derivatives against the tested pathogenic microorganisms were determined by broth microdilution method, with valnemulin and retapamulin as positive controls.
(§2) The experimental strains included resistant Gram-positive bacteria: Methicillin-resistant S. aureus ATCC 33591; Methicillin-resistant S. aureus ATCC 43300; S. aureus ATCC 29213; Methicillin-resistant S. epidermidis ATCC 51625. Resistant Gram-negative bacteria: A. baumannii ATCC 19606; S. enterica ATCC14028; E. coli ATCC 25922; E. coli CMCC 44103. 9 clinically isolated resistant strains: MRSA-171; MRSA-575; MRSA-206; MRSA-222; MRSA-596; VRE-80; MDR-PA-126; MDR-KP-893; CR-AB-882.
(§3) (1) Preparation of MHB medium: Weigh 18.0 g of MHB medium pre-made powder, add it to 1 L of distilled water, heat and boil until completely dissolved, divide it into conical bottles, sterilize it by high pressure at 121° C. for 15 minutes, and set aside.
(§4) (2) Cultivate the experimental strain to the logarithmic growth phase: Under sterile conditions, inoculate the experimental strain into fresh MHB medium and culture it in a 37° C. constant temperature and humidity incubator for 16-24 hours. Adjust the bacterial solution concentration to 1.5×10^8 CFU/mL and then dilute it 200 times for later use.
(§5) (3) Preparation of storage solution: Weigh the sample to be tested, dissolve it in 1% DMSO solution, and prepare a storage solution with a concentration of 2560 μg/mL; weigh the positive control, dissolve it in sterile distilled water, and prepare a storage solution with a concentration of 2560 μg/mL.
(§6) (4) Preparation of bacterial suspension: Under sterile conditions, the experimental strain cultured to the logarithmic growth phase was calibrated to a 0.5 McFarland unit turbidity standard using MHB medium and then diluted at a ratio of 1:200 to prepare a bacterial suspension with a concentration of 5×10^5 CFU/mL for later use.
(§7) (5) Determination of MIC by two-fold microdilution method: Take a sterile 96-well plate, add 10 μL of the test compound at a concentration of 2560 μg/mL, and perform serial dilutions by the two-fold dilution method. At the same time, set up a negative control group without drug. Then add 190 μL of diluted bacterial solution to each well, so that the final bacterial solution concentration in each well is 5×10^5 CFU/mL, and incubate in a 37° C. constant temperature and humidity chamber for 24 hours.

Test [4] deals with methicillin-resistant Staphylococcus aureus-206. Nature of the test: MIC, clinical isolates. Type of test: cell-based. On the procedure: as §1, §2, §3, §4, §5, §6, §7
The subject of test [5] is methicillin-resistant Staphylococcus aureus-575. Nature of the test: MIC, clinical isolates. Type of test: cell-based. How it is done: as §1, §2, §3, §4, §5, §6, §7
In test [6] the test system is methicillin-resistant Staphylococcus aureus-171. Nature of the test: MIC, clinical isolates. Type of test: cell-based. On the procedure: as §1, §2, §3, §4, §5, §6, §7
For test [7], the system named is vancomycin-resistant Enterococcus-80. Nature of the test: MIC, clinical isolates. It counts as cell-based. On the procedure:
as §1, §2, §3, §4, §5, §6, §7

The subject of test [8] is multidrug-resistant Pseudomonas aeruginosa-126. Nature of the test: MIC, clinical isolates. It counts as cell-based. How it is done:
as §1, §2, §3, §4, §5, §6, §7

The test system of test [9] is carbapenem-resistant Acinetobacter baumannii-882. The test is described as follows: MIC, clinical isolates. It counts as cell-based. On the procedure: as §1, §2, §3, §4, §5, §6, §7

By MIC is commonly meant the lowest concentration found to suppress growth. Turning to `C=C[C@]1(C)C[C@@H](OC(=O)CSc2nc3cc[n+](Cc4ccc(C)cc4)cc3[nH]2)[C@]2(C)[C@H](C)CC[C@]3(CCC(=O)[C@H]32)[C@@H](C)[C@@H]1O` [Compound i, 5-(4-methylbenzyl)-2-((2-(((3aR,4R,5R,7S,8S,9R,9aS,12R)-8-hydroxy-4,7,9,12-tetramethyl-3-oxo-7-vinyldecahydro-4,9a-propancyclopenta[8]cyclo-5-yl)oxy)-2-oxoethyl)thio)-3H-imidazo[4,5-C]pyridine-5-ium], the entries for the “extracellular fluorescence intensity (ATP) increased by” value in the test on E. coli (ATCC 25922) [1] (1×MIC) and in the test on E. coli (ATCC 25922) [1] (2×MIC) were 4.34 times and 5.35 times, respectively. Besides, the “intracellular fluorescence intensity (ATP) decreased by” value in the test with E. coli (ATCC 25922) [1] (1×MIC) was 50.75%; in the test with E. coli (ATCC 25922) [1] (2×MIC), 67.87%. The “bactericidal efficiency (time-kill curve) compared with retapamulin” value in the test with MRSA (ATCC 33591) was “higher bactericidal efficiency”. The “cell membrane integrity, propidium iodide red fluorescence” value in the test with E. coli (ATCC 25922) [2] (1×MIC) is “obvious red fluorescence was observed”; in the test with E. coli (ATCC 25922) [2] (2×MIC), “red fluorescence was significantly enhanced”. Moreover, the MIC was determined as 4 µg/mL in test [3] (clinical isolate MRSA-222, read-out: Antibacterial activity (MIC) MRSE^e); 1 µg/mL in test [4] (clinical isolate MRSA-206, read-out: Antibacterial activity (MIC) MRSA^d); 1 µg/mL in test [5] (clinical isolate MRSA-575, read-out: Antibacterial activity (MIC) MRSA^c); 4 µg/mL in [6] (clinical isolate MRSA-171, read-out: Antibacterial activity (MIC) MRSA^b); 4 µg/mL in test [7] (clinical isolate VRE-80, read-out: Antibacterial activity (MIC) VRE^g); 4 µg/mL in test [8] (clinical isolate MDR-PA-126, read-out: Antibacterial activity (MIC) MDR-PA^h). For the same compound, the minimal inhibitory concentration (MIC) in test [9] (clinical isolate CR-AB-882, read-out: Antibacterial activity (MIC) CR-AB^j) is 4 µg/mL.

Turning to `C=C[C@]1(C)C[C@@H](OC(=O)CS[C@@H]2C[C@H]3CC[C@@H](C2)N3C)[C@]2(C)[C@H](C)CC[C@]3(CCC(=O)[C@H]32)[C@@H](C)[C@@H]1O` [Retapamulin, reference compound], the minimal inhibitory concentration (MIC) in test [3] (read-out: Antibacterial activity (MIC) MRSE^e) is 128 µg/mL (≈ 247 µM); in test [4] (MRSA, read-out: Antibacterial activity (MIC) MRSA^d), 64 µg/mL (≈ 124 µM); in [5] (MRSA, read-out: Antibacterial activity (MIC) MRSA^c), 32 µg/mL (≈ 61.8 µM); in test [6] (MRSA, read-out: Antibacterial activity (MIC) MRSA^b), 128 µg/mL (≈ 247 µM); in [7] (VRE, read-out: Antibacterial activity (MIC) VRE^g) it was over 128 µg/mL; in test [8] (read-out: Antibacterial activity (MIC) MDR-PA^h), 64 µg/mL (≈ 124 µM). The MIC in test [9] (read-out: Antibacterial activity (MIC) CR-AB^j) was determined as 64 µg/mL (≈ 124 µM).
